Measurements taken from patent US20220211038A1, “COMPOSITION AND METHOD FOR PROTECTING PLANT AGAINST DISEASE AND PEST” (SUMITOMO CHEMICAL COMPANY, LIMITED, priority 2019, published 2022).

How the values were obtained:
[1] = test system: Septoria leaf blotch (Mycosphaerella graminicola); experiment: Growth inhibition of Septoria leaf blotch in YBG medium, microtiter plate, absorbance at 600 nm (Test Example 1); assay type: cell-based; details: 18° C., four days
Experimental: Fluopyram and fluxapyroxad were respectively dissolved in dimethyl sulfoxide, and agent solutions were prepared so that the concentration of each compound was 100 times the concentration described in Table 1. The agent solution was dispensed into each well of a microtiter plate (96 wells) in 1 μl portion, and then 99 μL of YBG medium to which conidia of Septoria leaf blotch (Mycosphaerella graminicola) was inoculated in advance (which was prepared by dissolving 10 g of yeast extract, 10 g of Bacto Peptone, and 20 mL of glycerol into 1 L of water, followed by sterilizing the medium) was dispensed into each of the well to which the agent solution was dispensed. The plate was cultivated at 18° C. for four days, thereby allowing Septoria leaf blotch to undergo proliferation, and the absorbance at 600 nm of a sample in each well of the microtiter plate was then measured to examine a degree of growth of Septoria leaf blotch (hereinafter referred to as “treated group”). Whereas, Septoria leaf blotch was grown similarly to the case of the treated group using dimethyl sulfoxide instead of the agent solution, and the degree of growth was measured (hereinafter referred to as “untreated group”). The efficacy was calculated from each of the obtained degree of growth of the treated group and the untreated group respectively by the following “Equation 1”.
Efficacy (%)=100×(X−Y)/X Equation 1
X: Degree of growth of fungus in the untreated group
Y: Degree of growth of fungus in the treated group

[2] = test system: powdery mildew (Sphaerotheca fuliginea); experiment: Cucumber powdery mildew control, spray on plantlets (Test Example 2); assay type: in vivo; details: 10 days
From the text: Fluopyram and fluxapyroxad were respectively mixed with surfactant and crushed in a grinding equipment to obtain a crushed composition. The crushed composition was then mixed with tap water so as to have the compound at the concentration described in Table 2 to obtain spray liquid. The spray liquid was sprayed onto cucumber (Cultivar: Hanjiro Fushinari) plantlet at run-off water volume. Plantlets were then air dried before artificially inoculated by putting the test plantlets in the same room where cucumber with powdery mildew (Sphaerotheca fuliginea) symptoms were grown. The plantlet were grown in the room for 10 days and the degree of disease severity on leaves was measured (hereinafter referred to as “treated group”).
The same operation was carried out […] (hereinafter referred to as “untreated group”).
The controlling value was calculated from each of the obtained degree of disease severity on leaves of the treated group and the untreated group respectively by the following “Equation 2”.
Controlling value (%)=100×(X−Y)/X Equation 2
X: Degree of disease severity on leaves in the untreated group
Y: Degree of disease severity on leaves in the treated group

| Structure (SMILES) | Efficacy (%) ([1]; Fluopyram 0.1 ppm alone) | Efficacy (%) ([1]; Fluopyram 1.75 ppm alone) | Controlling value (%) ([2]; Fluopyram 0.4 mg/L alone) | Controlling value (%) ([2]; Fluopyram 4.0 mg/L alone) | Efficacy (%) ([1]; Fluxapyroxad 0.18 ppm alone) | Efficacy (%) ([1]; Fluxapyroxad 0.5 ppm alone) | Controlling value (%) ([2]; Fluxapyroxad 0.4 mg/L alone) | Controlling value (%) ([2]; Fluxapyroxad 2.0 mg/L alone) |
| --- | --- | --- | --- | --- | --- | --- | --- | --- |
| O=C(NCCc1ncc(C(F)(F)F)cc1Cl)c1ccccc1C(F)(F)F [Fluopyram] | 24% | 60% | 32% | 50% |  |  |  |  |
| Cn1cc(C(=O)Nc2ccccc2-c2cc(F)c(F)c(F)c2)c(C(F)F)n1 [Fluxapyroxad] |  |  |  |  | 71% | 82% | 16% | 34% |
